Assay results: patent US10550304B2, “Quaternary ammonium compounds and gas hydrate inhibitor compositions” (M-I DRILLING FLUIDS UK LIMITED, priority 2013, dated 2020)

Columns and labels:
Skeletonema costatum = test: Toxicity against Skeletonema costatum; assay type: cell-based; details: over 72 hours
Protocol: The toxicity of a quaternary ammonium compound or an LDHI composition comprising the quaternary ammonium compound may be evaluated by testing against Skeletonema costatum and determining EC50 values in the aquatic environment. Also the percentage biodegradation may be measured after 28 days in seawater.
Toxicity was tested against Skeletonema costatum and EC50 values determined (over 72 hours).

[1] = Biodegradation in seawater, OECD TG 306 28 day method; details: OECD TG 306, 28 days
Protocol: Environmental experiments were performed to test biodegradation and toxicity. The biodegradation tests used the standard OECD Guideline for Testing of Chemicals TG 306 (Biodegradability in Seawater) 28 day method (version adopted 17 Jul. 1992) for testing biodegradation of chemicals in seawater.

CCCCCCCCCCCCCC[P+](CCCC)(CCCC)CCCC.[Cl-] [TTPC, tributyl tetradecylphosphonium chloride]
EC50 (Skeletonema costatum): 0.016 mg/L | Biodegradation after 28 days [1]: 11%
